According to patent US20120238511A1, “2-DEOXY-D-GLUCOSE FORMULATIONS FOR PREVENTION OR TREATMENT OF NEURODEGENERATIVE DISEASES” (University of Southern California, priority 2011, published 2012):

Test system: triple transgenic AD (3×Tg-AD) mouse model
Experiment: 2-DG diet in triple transgenic Alzheimer's mouse model
Assay type: in vivo
Settings: low-density gene array (LDA array) analyses
Experimental: It has been shown that mitochondrial bioenergetic deficits precede Alzheimer's disease (AD) pathology in the triple transgenic AD (3×Tg-AD) mouse model. […] In the current study, the impact of 2-deoxy-D-glucose (2-DG), a compound known to regulate glucose metabolism and induce ketogenesis, on both brain bioenergetics and AD pathology was evaluated.
3×Tg-AD female at 6 month were fed with either a regular diet (AIN-93G) or diet containing 0.04% 2-DG for 7 weeks.

For `OCC1OC(O)CC(O)C1O` [2-DG, 2-deoxy-D-glucose], the Tau phosphorylation was “reduced” and the amyloid production was “decreased”.
